With `Cc1c(C(=O)OCc2ccccc2)[nH]c2cc3c(sc4ccccc43)c(C)c12` the melting point was 203 to 204 °C. Work on `Nc1cc(C(=O)O)cc(SCc2ccccc2)c1-c1ccccc1` yielded a melting point of 173 to 174 °C. Work on `CCCCC1(CCCC)CCc2c(O)cccc2C1O` (configuration not stated) yielded a melting point of 82 to 83 °C. `O=C(O)c1cc(C(=O)C(F)(F)F)cc2c1OC(c1ccccc1)(c1ccccc1)O2` gave a melting point of 187 °C. With `COc1ccc(-c2cn(C)cc(-c3ccccc3)c2=O)cc1C` the melting point was 157 to 160 °C. `CNCc1cccc(C2CCN(c3cc4c(cc3F)c(=O)c(C(=O)O)cn4C3CC3)C2)c1` (configuration not stated) showed a melting point of 239 to 240 °C. With `CNc1nc(OC(F)F)cc(OC(F)F)n1` the melting point was 54 to 55 °C. `CCCc1cc2c(c(Br)c1O)CCO2` showed a melting point of 42 to 43 °C. With `Cc1ccc2ccc(C#N)cc2c1` the melting point was 134 to 136 °C. In the case of `Cc1cccc(-c2c(=O)[nH]c3cc(Cl)c(Cl)cc3[n+]2[O-])c1`, the melting point is reported as 260 to 262 °C. In the case of `O=C(CCc1ccccc1)c1ccc(OCCO)cc1`, the melting point is reported as 41 to 43 °C. In the case of `CC(C)(C)OC(=O)[C@@H]1CS[C@H](c2ccccc2F)N1C(=O)CNC(=O)Nc1cccc(CC(=O)O)c1`, the melting point is reported as 110 °C. In the case of `COC(=O)C(=O)C1C(=O)C(=O)C(CCCCCCC(=O)O)C1=O` (configuration not stated), the melting point is reported as 127 to 129 °C. `N#CSc1sc(NC(=O)c2cccc(C(F)(F)F)c2)nc1C(F)(F)F` gave a melting point of 167 to 168 °C. In the case of `CC(C)(OCc1nn(Cc2ccccc2)c2ccccc12)C(=O)NCC(=O)O`, the melting point is reported as 157 to 158 °C. Compound `Cc1cnccc1Nn1ccc2ccccc21` has a melting point of 78 to 80 °C. `Cc1ccc(S(=O)(=O)N(C)c2ccc(Cl)cc2C#N)cc1` gave a melting point of 145 to 147 °C. For `Oc1cc2[nH]c3cc(O)c(O)cc3c2cc1O`, the melting point was > 300 °C. For `COc1ccc(-n2c(CF)nc3ccc(N)cc3c2=O)c(C)c1`, the melting point was 200 to 202 °C. For `CN(C)N=Nc1cc(-c2ccccc2)sc1C(N)=O`, the melting point was 220 to 222 °C. Compound `O=C(O)c1ccc(C(=O)NCCc2ccccc2)cc1` has a melting point of 237 to 238 °C. In the case of `COc1ccc2c(c1)c(=O)oc1c(C(C)=O)c(O)ccc12`, the melting point is reported as 197 to 199 °C. Work on `Cc1ccccc1-c1nccc2c(CC#N)cccc12` yielded a melting point of 120 °C. For `O=S(=O)(Cc1ccccc1)c1c(Cl)nc(Cl)nc1Cl`, the melting point was 160 to 162 °C. `CCOC(=O)C1=C(COCc2nnnn2CCNc2nc(N)n[nH]2)NC(C)=C(C(=O)OC)C1c1cccc(Cl)c1Cl` (configuration not stated) showed a melting point of 70 °C. In the case of `COC(=O)c1cc(C)cc(CNO)c1`, the melting point is reported as 99 to 100 °C. Work on `OCc1cn(-c2ccccc2)nc1-c1ccc(Cl)cc1` yielded a melting point of 141 to 142 °C. In the case of `CC(=O)N1OC(C)C(=S)NC1c1ccccc1C` (configuration not stated), the melting point is reported as 167 to 170 °C. `Cc1cn(S(=O)(=O)c2cccc(C(C)(C)C)c2)c2ccc(C(F)(F)F)cc12` gave a melting point of 90 to 108 °C. `CSc1ccc2nc[nH]c(=O)c2c1` gave a melting point of 203 to 204 °C. In the case of `O=c1[nH]c2cc(Cl)c(Cl)cc2cc1P(=O)(O)O`, the melting point is reported as > 300 °C. Compound `Cc1nc(-n2cnn(CCO)c2=O)sc1C(=O)NCc1cccnc1` has a melting point of 201 to 202 °C. Work on `CCn1ncc2c1ncc1c(=O)[nH]c3ncnn3c12` yielded a melting point of 175 to 177 °C. Work on `CCOCC(=NO)C(C)(C)NOC(CNC(C)(C)C(C)=NO)Cn1ccnc1[N+](=O)[O-]` (configuration not stated) yielded a melting point of 129 to 130 °C. Work on `Cc1nc(-c2cccnc2)c(C)[nH]1` yielded a melting point of 179 to 181 °C. `CCCn1c(COC)nc2c(N)nc3ccc(OCCN4CCCCC4)cc3c21` showed a melting point of 160 to 162 °C. In the case of `CCCCC(CNc1nc(C)c(O)c(C(C)C)n1)c1ccccc1` (configuration not stated), the melting point is reported as 60 to 61 °C. Compound `CCOC(=O)NCCS(=O)CC(=O)O` (configuration not stated) has a melting point of 93.1 to 94.1 °C. In the case of `COc1cc2c(cc1NCc1ccccc1)ncc1c(N)nc(-c3cccnc3)cc12`, the melting point is reported as 251 to 258 °C. `N#Cc1ccc(C(=C2CCCC2)c2nc[nH]n2)cc1` showed a melting point of 72 °C. With `CC(=O)N1CCN(c2ccc(Nc3nccc(-c4sc(N(C)c5cccnc5)nc4C)n3)cc2)CC1` the melting point was 205 to 206 °C. `Fc1ccc(F)c(COc2cccnc2NC(=S)Nc2ccc(Cl)cc2)c1F` showed a melting point of 174 to 176 °C. In the case of `CCCCCc1cc(O)c(C2=C(CO)CCC(C)C2)c(O)c1` (configuration not stated), the melting point is reported as 109 to 111 °C. Compound `CC(C)c1cc(-c2c3ccccc3c(Br)c3sc4ccccc4c23)cc(C(C)C)c1O[C@H](C)C(=O)O` has a melting point of 214 to 215 °C. Work on `CC(=O)NCc1c(C)cc(CN2CCN(c3ccccc3)CC2)cc1C` yielded a melting point of 159 to 160 °C. For `C=C(CC(Cl)(Cl)Cl)c1cc(Cl)nc(Cl)c1`, the melting point was 82 to 83 °C. For `CCOc1ccc(C2=NN(CCCCBr)C(=O)[C@H]3CC=CC[C@@H]23)cc1OCC` (relative stereo), the melting point was 73 to 75 °C. For `CCOC(=O)c1c(SC)nc(-c2ccc(F)cc2)n(-c2ccc(SC)cc2)c1=O`, the melting point was 166 to 169 °C. For `O=c1cc(-c2ccc(O)cc2)oc2c([N+](=O)[O-])cccc12`, the melting point was 299 to 301 °C. For `CCCCSc1nsnc1O`, the melting point was 72 to 72.5 °C. For `CCOC(=O)C1=C(C)NC(N)=C(C(=O)OCC)C1c1ccccc1[N+](=O)[O-]` (configuration not stated), the melting point was 159 °C. For `NCC1Cc2cc(Cl)cc(-c3ccc(F)c(F)c3)c2O1` (configuration not stated), the melting point was > 250 °C.
